Biological target: T1, human Hv1 channel (Homo sapiens, UniProt Q96D96)
T1 construct: expressed in transfected cells; host or cells: Xenopus oocytes (cRNA injection, pGEMHE vector)
T1 sequence (Q96D96 1-273): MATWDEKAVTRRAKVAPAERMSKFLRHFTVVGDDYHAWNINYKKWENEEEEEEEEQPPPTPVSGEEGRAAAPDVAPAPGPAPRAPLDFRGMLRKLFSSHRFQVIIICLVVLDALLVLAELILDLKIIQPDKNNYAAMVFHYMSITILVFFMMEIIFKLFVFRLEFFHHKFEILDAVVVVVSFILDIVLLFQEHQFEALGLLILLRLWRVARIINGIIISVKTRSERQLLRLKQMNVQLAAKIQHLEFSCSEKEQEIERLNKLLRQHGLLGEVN
Assay: Patch-clamp assay of Hv1 proton transport inhibition in Xenopus oocytes expressing human Hv1
Assay type: cell-based
Procedure: Plasmids were linearized with either NheI or SphI restriction enzymes (New England Biolabs) before in vitro transcription. RNA synthesis was carried out with a T7 mMessage mMachine transcription kit (Ambion). […] The linearized plasmid was transcribed with SP6 RNA polymerase. cRNAs were injected in Xenopus oocytes (50 nl per cell, 0.3-1.5 μg/μl) 1-3 days before the electro-physiological measurements. Cells were kept at 18° C. in ND96 medium containing 96 mM NaCl, 2 mM KCl, 1.8 mM CaCl2, 1 mM MgCl2, 10 mM HEPES, 5 mM pyruvate, 100 μg/ml gentamycin (pH 7.2).
The bath solution contained 100 mM 2-(N-morpholino)ethanesulphonic acid (MES), 30 mM tetraethylammonium (TEA) methanesulfonate, 5 mM TEA chloride, 5 mM ethyleneglycol-bis(2-ami-noethyl)-N,N,N0,N0-tetra-acetic acid (EGTA), adjusted to pH 6.0 with TEA hydroxide. For recordings carried out in the absence of pH gradient (pHi=pHo=6.0), the pipette solution had the same composition of the bath solution. Some of the measurements were performed in the presence of a pH gradient (pHi=6.0, pHo=7.5). In these cases the extracellular solution contained 100 mM 4-(2-hydroxyethyl)-1-piperazineethanesulfonic acid (HEPES), 40 mM TEA methanesulfonate, 5 mM TEA chloride, adjusted to pH 7.5 with TEA hydroxide. Native proton currents in BV-2, RAW264.7, and THP-1 were measured in whole-cell configuration with an intracellular solution containing: 90 mM TEA methanesulfonate, 100 mM MES, 2 mM MgCl2, 2 mM EGTA, adjusted to pH 6.0 with TEA hydroxide. The extracellular solution contained: 85 mM TEA methanesulfonate, 100 mM HEPES, 3 mM CaCl2, 1 mM EGTA, adjusted to pH 7.5 with TEA hydroxide. All measurements were performed at 22° C.±2° C. Pipettes had 2-4 M access resistance. Current traces were filtered at 1 kHz, sampled at 5 kHz and analyzed with Clampfit10.2 (Molecular Devices) and Origin8.1 (OriginLab).

| SMILES | inhibition at 200 µM (200 μM) | other results |
| --- | --- | --- |
| Nc1nc2ccccc2[nH]1 [2-aminobenzimidazole] | 29.8 ± 2.5% | – |
| N=C(N)NCCCCN [agmatine] | 18.5 ± 1.5% | – |
| CN1CC(=O)NC1=N [Creatinine, reference compound] | – | Hv1 proton transport % inhibition (600 μM): 0% |
| N=C(N)Nc1nc2ccc([N+](=O)[O-])cc2[nH]1 [5-nitro-2-guanidinobenzimidazole] | – | inhibition at 4 µM (4 μM): 57 ± 10% |
| NC(N)=Nc1nc(CSCCC(N)=NS(N)(=O)=O)cs1 [3-([2-(diaminomethyleneamino)thiazol-4-yllmethylthio)-N′-sulfamoylpropanimidamide] | – | Hv1 proton transport % inhibition (200 μM): 21.5 ± 2.7% |
| CC(=O)N(C(=N)NC(=N)N)c1ccccc1 [N-(guanidino-iminomethyl)-N-phenylacetamide] | 0.5 ± 1% | – |
| Nc1nnc(Nc2ccc(Cl)cc2)[nH]1 [N(3)-(4-chlorophenyl)-4H-1,2,4-triazole-3,5-diamine] | – | inhibition at 40 µM (40 μM): 28 ± 7% |
| N=C(N)NN [aminoguanidine, amino-guanidine] | 4.3 ± 2.3% | – |
| CCOC(=O)Cc1sc(NC(=N)N)nc1C [ethyl (2-[[amino(imino)methyl]amino1-4-methyl-1,3-thiazol-5-yl)acetate] | – | Hv1 proton transport % inhibition (200 μM): 68.2 ± 2.2% |
| COc1ccc(CCN2CCC(Nc3nc4ccccc4n3Cc3ccc(F)cc3)CC2)cc1 [1-[(4-fluorophenyl)methyl]-N-[1-[2-(4-methoxyphenyl)ethyl]-4-piperidylibenzoimidazol-2-amine] | – | Hv1 proton transport % inhibition (200 μM): 67 ± 6% |
| Nc1ncccn1 [2-aminopyrimidine] | 2 ± 1% | – |
| Nc1ncc[nH]1 [2-aminoimidazole] | 21.2 ± 5.1% | – |

Second part, led by results:

| inhibition at 200 µM (200 μM) | SMILES | other results |
| --- | --- | --- |
| 31% | CCOC(=O)c1sc(NC(=N)N)nc1C [ethyl 2-[[amino(imino)methyl]amino]-4-methyl-1,3-thiazole-5-carboxylate] | – |
| 73 ± 3% | CC(C)OC(=O)CCCCC(=NNC(=N)N)c1ccccc1 [isopropyl 6-(guanidinoimino)-6-phenylhexanoate] | – |
| 31.7 ± 0.7% | Cc1nc(NC(=N)N)nc2ccccc12 [2-guanidino-4-methylquinazoline] | – |
| 81% | N=C(N)Nc1nc2ccccc2s1 [1-(1,3-benzothiazol-2-yl)guanidine] | – |
| 1 ± 1% | N=C(N)Nc1nc2ccccc2o1 [1-(1,3-benzoxazol-2-yl)guanidine] | – |
| 6.8 ± 2.25% | CN(C)C(=N)NC(=N)N [1,1-dimethylbiguanide] | – |
| 82.6 ± 2.25% | N=C(N)Nc1nc2ccccc2[nH]1 [2-guanidinobenzimidazole] | – |
| 39.4 ± 3.4% | CCOC(=O)c1nc(NC(=N)N)sc1C [ethyl 2-[[amino(imino)methyl]amino]-5-methyl-1,3-thiazole-4-carboxylate] | – |

Source: patent US20150203812A1, “Inhibitors of Voltage Gated Ion Channels” (priority 2014, published 2015)
